Measurements as given in PubChem BioAssay AID651817 (Broad Institute, 2012).
Activity calls are given as the source filed them.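 The calls were made as follows: active = compound whose fitted luminescence drop, meaning cytotoxicity, reaches half effect at most twice its top valid tested dose; inconclusive = flat curve with a moderate drop, or an unreliable fit; inactive = rise instead of drop, flat response, or weaker potency.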

Test: NIH/3T3 fibroblast cytotoxicity, dose response, cytotoxicity control for T. cruzi growth inhibitor project, cell-based, cherry-pick samples, set 2 (AID 651817)
Conditions: NIH/3T3 viability, ATP luminescence (CellTiter-Glo), 90 h; at 3.8 µM (top of the series)
For `C[C@H]1CN([C@@H](C)CO)C(=O)c2cccc(NC(=O)c3nc4ccccc4s3)c2O[C@@H]1CN(C)S(=O)(=O)c1ccccc1`, the activity change, negative = cytotoxicity was 28.8% (inactive).

Same assay, conditions: NIH/3T3 viability, ATP luminescence (CellTiter-Glo), 90 h; at 19.5 µM (top of the series)
In the case of `C[C@@H]1CN([C@@H](C)CO)C(=O)Cc2cc(NS(=O)(=O)c3ccccc3)ccc2O[C@@H]1CN(C)S(=O)(=O)c1ccc(Cl)cc1`, the activity change, negative = cytotoxicity is reported as -12.4% (inactive). In the case of `C[C@H](CO)N1C[C@H](C)[C@@H](CN(C)Cc2ccc(C(F)(F)F)cc2)Oc2c(NC(=O)c3ccncc3)cccc2C1=O`, the activity change, negative = cytotoxicity is reported as -10.8% (inactive). In the case of `Cc1noc(C)c1NC(=O)Nc1cccc2c1O[C@H](CN(C)S(C)(=O)=O)[C@H](C)CN([C@H](C)CO)C2=O`, the activity change, negative = cytotoxicity is reported as -14.2% (inactive). For `Cc1noc(C)c1NC(=O)Nc1cccc2c1O[C@@H](CN(C)S(C)(=O)=O)[C@H](C)CN([C@H](C)CO)C2=O`, the activity change, negative = cytotoxicity was -6.79% (inactive). In the case of `Cc1noc(C)c1NC(=O)Nc1cccc2c1O[C@H](CN(C)S(C)(=O)=O)[C@@H](C)CN([C@H](C)CO)C2=O`, the activity change, negative = cytotoxicity is reported as 2.45% (inactive). In the case of `Cc1ccc(S(=O)(=O)N(C)C[C@H]2Oc3c(NC(=O)c4nc5ccccc5s4)cccc3C(=O)N([C@H](C)CO)C[C@H]2C)cc1`, the activity change, negative = cytotoxicity is reported as 14.1% (inactive). In the case of `C[C@H]1CN([C@@H](C)CO)C(=O)c2cccc(NC(=O)c3nc4ccccc4s3)c2O[C@@H]1CN(C)S(=O)(=O)c1ccc(Cl)cc1`, the activity change, negative = cytotoxicity is reported as -9.43% (inactive). With `C[C@H]1CN([C@@H](C)CO)C(=O)c2cccc(NC(=O)c3nc4ccccc4s3)c2O[C@H]1CN(C)S(=O)(=O)c1ccc(Cl)cc1` the activity change, negative = cytotoxicity was 1.37% (inactive). For `C[C@@H]1CN([C@H](C)CO)C(=O)c2cccc(NC(=O)c3nc4ccccc4s3)c2O[C@@H]1CN(C)Cc1ccc2c(c1)OCO2`, the activity change, negative = cytotoxicity was -22.1% (inactive). With `C[C@H]1CN([C@@H](C)CO)C(=O)Cc2cc(NS(=O)(=O)c3ccccc3)ccc2O[C@@H]1CN(C)S(=O)(=O)c1ccc(Cl)cc1` the activity change, negative = cytotoxicity was -7.84% (inactive). For `C[C@H]1CN([C@@H](C)CO)C(=O)Cc2cc(NS(=O)(=O)c3ccccc3)ccc2O[C@H]1CN(C)S(=O)(=O)c1ccc(Cl)cc1`, the activity change, negative = cytotoxicity was -30.3% (inactive). For `COc1ccc(CN(C)C[C@@H]2Oc3c(NC(=O)Nc4ccc(C(F)(F)F)cc4)cccc3C(=O)N([C@H](C)CO)C[C@@H]2C)cc1`, the activity change, negative = cytotoxicity was -21.3% (inactive). For `C[C@@H]1CN([C@@H](C)CO)C(=O)c2cccc(NC(=O)c3ccncc3)c2O[C@@H]1CN(C)Cc1ccc(Cl)c(Cl)c1`, the activity change, negative = cytotoxicity was 33% (inactive). In the case of `Cc1ccc(S(=O)(=O)Nc2ccc3c(c2)CC(=O)N([C@H](C)CO)C[C@H](C)[C@@H](CN(C)Cc2ccccc2)O3)cc1`, the activity change, negative = cytotoxicity is reported as -0.645% (inactive). For `C[C@H]1CN([C@@H](C)CO)C(=O)c2cccc(NC(=O)c3ccncc3)c2O[C@H]1CN(C)Cc1ccc(-c2ccccc2)cc1`, the activity change, negative = cytotoxicity was 18.2% (inactive). With `C[C@H]1CN([C@@H](C)CO)C(=O)c2cccc(NC(=O)c3ccncc3)c2O[C@H]1CN(C)Cc1ccc(C(F)(F)F)cc1` the activity change, negative = cytotoxicity was -30.7% (inactive). In the case of `C[C@H](CO)N1C[C@H](C)[C@@H](CN(C)S(=O)(=O)c2ccc(Cl)cc2)Oc2c(NC(=O)c3nc4ccccc4s3)cccc2C1=O`, the activity change, negative = cytotoxicity is reported as 14.7% (inactive). In the case of `C[C@H](CO)N1C[C@H](C)[C@@H](CN(C)Cc2ccc(-c3ccccc3)cc2)Oc2c(NC(=O)c3ccncc3)cccc2C1=O`, the activity change, negative = cytotoxicity is reported as -29.7% (inactive). For `C[C@@H]1CN([C@@H](C)CO)C(=O)c2cccc(NC(=O)c3nc4ccccc4s3)c2O[C@H]1CN(C)Cc1ccc2c(c1)OCO2`, the activity change, negative = cytotoxicity was -20.2% (inactive). With `COc1ccc(CN(C)C[C@@H]2Oc3c(NC(=O)Nc4ccc(C(F)(F)F)cc4)cccc3C(=O)N([C@@H](C)CO)C[C@@H]2C)cc1` the activity change, negative = cytotoxicity was -25.6% (inactive). For `C[C@H](CO)N1C[C@H](C)[C@@H](CN(C)CC2CCCCC2)Oc2c(NC(=O)c3ccncc3)cccc2C1=O`, the activity change, negative = cytotoxicity was -21.4% (inactive). In the case of `C[C@@H]1CN([C@H](C)CO)C(=O)Cc2cc(NS(=O)(=O)c3ccc(Cl)cc3)ccc2O[C@H]1CN(C)Cc1ccc2c(c1)OCO2`, the activity change, negative = cytotoxicity is reported as -22% (inactive). In the case of `C[C@@H]1CN([C@@H](C)CO)C(=O)c2cccc(NC(=O)c3ccncc3)c2O[C@@H]1CN(C)Cc1ccc(-c2ccccc2)cc1`, the activity change, negative = cytotoxicity is reported as 19.3% (inactive). With `Cc1noc(C)c1NC(=O)Nc1cccc2c1O[C@H](CN(C)S(C)(=O)=O)[C@@H](C)CN([C@@H](C)CO)C2=O` the activity change, negative = cytotoxicity was -18.2% (inactive). In the case of `C[C@@H]1CN([C@H](C)CO)C(=O)c2cccc(NC(=O)c3ccncc3)c2O[C@H]1CN(C)CC1CC1`, the activity change, negative = cytotoxicity is reported as -26.2% (inactive). In the case of `C[C@@H]1CN([C@@H](C)CO)C(=O)c2cccc(NC(=O)c3ccncc3)c2O[C@@H]1CN(C)CC1CCCCC1`, the activity change, negative = cytotoxicity is reported as 15.4% (inactive). For `C[C@@H]1CN([C@H](C)CO)C(=O)c2cccc(NC(=O)c3nc4ccccc4s3)c2O[C@@H]1CN(C)S(=O)(=O)c1ccc(Cl)cc1`, the activity change, negative = cytotoxicity was 11.5% (inactive). For `COc1ccc(CN(C)C[C@@H]2Oc3c(NC(=O)Nc4ccc(C(F)(F)F)cc4)cccc3C(=O)N([C@@H](C)CO)C[C@H]2C)cc1`, the activity change, negative = cytotoxicity was -16.2% (inactive). For `C[C@H](CO)N1C[C@H](C)[C@@H](CN(C)S(=O)(=O)c2ccccc2)Oc2c(NC(=O)c3nc4ccccc4s3)cccc2C1=O`, the activity change, negative = cytotoxicity was -18.8% (inactive). For `C[C@@H]1CN([C@@H](C)CO)C(=O)c2cccc(NC(=O)c3ccncc3)c2O[C@@H]1CN(C)Cc1ccc(C(F)(F)F)cc1`, the activity change, negative = cytotoxicity was -16.7% (inactive). In the case of `C[C@@H]1CN([C@H](C)CO)C(=O)Cc2cc(NS(=O)(=O)c3ccc(F)cc3)ccc2O[C@@H]1CN(C)Cc1ccc(Cl)c(Cl)c1`, the activity change, negative = cytotoxicity is reported as -49.8% (inactive). For `C[C@@H]1CN([C@H](C)CO)C(=O)Cc2cc(NS(=O)(=O)c3ccccc3)ccc2O[C@@H]1CN(C)S(=O)(=O)c1ccc(Cl)cc1`, the activity change, negative = cytotoxicity was -10.7% (inactive). In the case of `C[C@@H]1CN([C@@H](C)CO)C(=O)c2cccc(NC(=O)c3nc4ccccc4s3)c2O[C@@H]1CN(C)Cc1ccc2c(c1)OCO2`, the activity change, negative = cytotoxicity is reported as 0.748% (inactive). With `C[C@@H]1CN([C@@H](C)CO)C(=O)c2cccc(NC(=O)NC3CCCCC3)c2O[C@@H]1CN(C)S(=O)(=O)c1ccc(F)cc1` the activity change, negative = cytotoxicity was 21.4% (inactive). For `Cc1ccc(S(=O)(=O)Nc2ccc3c(c2)CC(=O)N([C@@H](C)CO)C[C@H](C)[C@@H](CN(C)Cc2ccccc2)O3)cc1`, the activity change, negative = cytotoxicity was 30.9% (inactive). In the case of `C[C@H](CO)N1C[C@H](C)[C@H](CN(C)S(=O)(=O)c2ccc(Cl)cc2)Oc2ccc(NS(=O)(=O)c3ccc(Cl)cc3)cc2CC1=O`, the activity change, negative = cytotoxicity is reported as 7.06% (inactive). For `C[C@@H]1CN([C@H](C)CO)C(=O)c2cccc(NC(=O)NC3CCCCC3)c2O[C@@H]1CN(C)S(=O)(=O)c1ccc(F)cc1`, the activity change, negative = cytotoxicity was 18.6% (inactive). In the case of `Cc1ccc(S(=O)(=O)Nc2ccc3c(c2)CC(=O)N([C@H](C)CO)C[C@H](C)[C@H](CN(C)Cc2ccccc2)O3)cc1`, the activity change, negative = cytotoxicity is reported as -17.1% (inactive). For `C[C@H]1CN([C@@H](C)CO)C(=O)c2cccc(NC(=O)c3ccncc3)c2O[C@@H]1CN(C)Cc1ccc(Oc2ccccc2)cc1`, the activity change, negative = cytotoxicity was -16.8% (inactive). With `C[C@H]1CN([C@@H](C)CO)C(=O)c2cccc(NC(=O)NC3CCCCC3)c2O[C@@H]1CN(C)S(=O)(=O)c1ccc(F)cc1` the activity change, negative = cytotoxicity was 3.7% (inactive). For `Cc1ccc(S(=O)(=O)Nc2ccc3c(c2)CC(=O)N([C@@H](C)CO)C[C@@H](C)[C@@H](CN(C)Cc2ccccc2)O3)cc1`, the activity change, negative = cytotoxicity was -13.8% (inactive). For `C[C@@H]1CN([C@H](C)CO)C(=O)c2cccc(NC(=O)c3ccncc3)c2O[C@@H]1CN(C)Cc1ccc(Oc2ccccc2)cc1`, the activity change, negative = cytotoxicity was 14.7% (inactive). In the case of `C[C@H]1CN([C@@H](C)CO)C(=O)c2cccc(NC(=O)c3ccncc3)c2O[C@H]1CN(C)Cc1ccc(Cl)c(Cl)c1`, the activity change, negative = cytotoxicity is reported as -14.4% (inactive). For `C[C@H]1CN([C@@H](C)CO)C(=O)c2cccc(NC(=O)c3nc4ccccc4s3)c2O[C@H]1CN(C)Cc1ccc2c(c1)OCO2`, the activity change, negative = cytotoxicity was -36.3% (inactive). In the case of `C[C@@H]1CN([C@@H](C)CO)C(=O)Cc2cc(NS(=O)(=O)c3ccccc3)ccc2O[C@H]1CN(C)S(=O)(=O)c1ccc(Cl)cc1`, the activity change, negative = cytotoxicity is reported as 0.768% (inactive). For `COc1ccc(CN(C)C[C@@H]2Oc3c(NC(=O)c4ccncc4)cccc3C(=O)N([C@H](C)CO)C[C@H]2C)cc1`, the activity change, negative = cytotoxicity was -20.7% (inactive).

Same assay, conditions: NIH/3T3 viability, ATP luminescence (CellTiter-Glo), 90 h; at 21 µM (top of the series)
With `Cc1ccc(S(=O)(=O)N(C)C[C@H]2Oc3ccc(NS(=O)(=O)c4ccc(Cl)cc4)cc3CC(=O)N([C@@H](C)CO)C[C@@H]2C)cc1` the activity change, negative = cytotoxicity was -2.46% (inactive). In the case of `C[C@H]1CN([C@@H](C)CO)C(=O)c2cccc(NC(=O)c3ccncc3)c2O[C@H]1CN(C)Cc1ccc2c(c1)OCO2`, the activity change, negative = cytotoxicity is reported as 4.17% (inactive). In the case of `C[C@H](CO)N1C[C@H](C)[C@H](CN(C)S(=O)(=O)c2ccc(Cl)cc2)Oc2ccc(NS(=O)(=O)c3ccccc3)cc2CC1=O`, the activity change, negative = cytotoxicity is reported as -11.3% (inactive). In the case of `Cc1ccc(S(=O)(=O)N(C)C[C@H]2Oc3ccc(NS(=O)(=O)c4ccccc4)cc3CC(=O)N([C@@H](C)CO)C[C@H]2C)cc1`, the activity change, negative = cytotoxicity is reported as -30.2% (inactive). In the case of `Cc1ccc(S(=O)(=O)N(C)C[C@@H]2Oc3ccc(NS(=O)(=O)c4ccc(Cl)cc4)cc3CC(=O)N([C@H](C)CO)C[C@@H]2C)cc1`, the activity change, negative = cytotoxicity is reported as -5.69% (inactive). With `C[C@@H]1CN([C@@H](C)CO)C(=O)c2cccc(NC(=O)c3ccncc3)c2O[C@H]1CN(C)Cc1ccccc1` the activity change, negative = cytotoxicity was 6.47% (inactive). With `C[C@H]1CN([C@@H](C)CO)C(=O)c2cccc(NC(=O)c3ccncc3)c2O[C@@H]1CN(C)CC1CCCCC1` the activity change, negative = cytotoxicity was -19.3% (inactive). With `C[C@@H]1CN([C@H](C)CO)C(=O)c2cccc(NC(=O)c3ccncc3)c2O[C@H]1CN(C)Cc1ccc(C(F)(F)F)cc1` the activity change, negative = cytotoxicity was -18.8% (inactive). For `Cc1ccc(S(=O)(=O)N(C)C[C@@H]2Oc3ccc(NS(=O)(=O)c4ccc(Cl)cc4)cc3CC(=O)N([C@H](C)CO)C[C@H]2C)cc1`, the activity change, negative = cytotoxicity was -11.6% (inactive).
